The source of these data is PubChem BioAssay (NCI).

Some test systems named below: MALME-3M melanoma; SF-268 CNS; SN12C renal; NCI-H226 lung; SK-MEL-5 melanoma; EKVX NSCLC; RPMI-8226 leukemia; OVCAR-3 ovarian; SF-539 CNS; SNB-19 CNS; MOLT-4 leukemia.
Common to all, as to assay: NCI anticancer screen, dose series, 48 h

Structures are written as SMILES.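 The compound was tested at five concentrations on cells cultured in 96-well plates, with a 48-hour exposure period. GI50 marks 50% less growth. At the TGI there is no net growth.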

Turning to `C[P+](c1ccccc1)(c1ccc(Cl)cc1)c1ccc(Cl)cc1`, the TGI with MALME-3M melanoma was 19.6 µM; with SF-268 CNS, over 100 µM; in the experiment with SN12C renal, 51.2 µM; in the experiment on NCI-H226 lung, 88.6 µM; with SK-MEL-5 melanoma, 14.4 µM; in the experiment with EKVX NSCLC, 99.3 µM. Moreover, the TGI is 2.41 µM in the experiment on RPMI-8226 leukemia, 10.5 µM in the experiment with OVCAR-3 ovarian, 65.4 µM with SF-539 CNS and 59.1 µM with SNB-19 CNS.

For `C[n+]1c2ccccc2c(CNCC(=O)O)c2ccccc21`, the TGI with MALME-3M melanoma was 28.6 µM; in the experiment with SF-268 CNS, 1.9 µM; in the experiment with SN12C renal, 2.81 µM; in the experiment with NCI-H226 lung, 15.5 µM; in the experiment on SK-MEL-5 melanoma it was 14.4 µM; in the experiment with EKVX NSCLC it was 12.3 µM. For the same compound, the TGI stood at 1.52 µM in the experiment on RPMI-8226 leukemia; 0.811 µM in the experiment on MOLT-4 leukemia; 6.2 µM in the experiment with OVCAR-3 ovarian; 5.19 µM in the experiment on SF-539 CNS; 22.2 µM in the experiment with SNB-19 CNS.

On to `c1ccc(-c2n(Cc3ccc4ccccc4c3)c3ccccc3[n+]2Cc2ccc3ccccc3c2)cc1`, for which the GI50 in the experiment with MALME-3M melanoma is 0.242 µM; with SN12C renal, 0.308 µM; in the experiment on NCI-H226 lung, 0.352 µM; with SK-MEL-5 melanoma, 0.175 µM; in the experiment on RPMI-8226 leukemia, 0.208 µM; in the experiment on OVCAR-3 ovarian it was 0.259 µM. The GI50 in the experiment on SF-539 CNS is 0.336 µM. The TGI in the experiment on MALME-3M melanoma amounted to 0.768 µM; with SN12C renal, 1.1 µM; in the experiment on NCI-H226 lung it was 2.01 µM; in the experiment on SK-MEL-5 melanoma it was 0.326 µM; with RPMI-8226 leukemia, 1.47 µM; in the experiment with OVCAR-3 ovarian, 1.03 µM. The same compound yielded a TGI in the experiment with SF-539 CNS of 1.29 µM.

For `O=C(Nc1ccc(Cl)cc1)c1cc([N+](=O)[O-])ccc1O`, the TGI in the experiment with MALME-3M melanoma is 8.57 µM; with SF-268 CNS it was 47.7 µM; in the experiment on SN12C renal it was over 50.9 µM; in the experiment with NCI-H226 lung it was 12.6 µM; with SK-MEL-5 melanoma, 8.25 µM; in the experiment on EKVX NSCLC it was 31.3 µM. In addition, the TGI was 10.2 µM with RPMI-8226 leukemia; 10.5 µM with MOLT-4 leukemia; 7.56 µM in the experiment on OVCAR-3 ovarian; over 34 µM with SF-539 CNS; over 49.2 µM in the experiment with SNB-19 CNS.

Turning to `C=CCNC1=C2C[C@@H](C)C[C@H](OC)[C@H](O)[C@@H](C)/C=C(\C)[C@H](OC(N)=O)[C@@H](OC)/C=C\C=C(/C)C(=O)NC(=CC1=O)C2=O`, the TGI worked out at 3.39 µM in the experiment on MALME-3M melanoma; 49.6 µM in the experiment on SF-268 CNS; 19.4 µM with SN12C renal; 28.9 µM in the experiment with NCI-H226 lung; 16.5 µM with SK-MEL-5 melanoma; 31.4 µM in the experiment on EKVX NSCLC. Besides, the TGI in the experiment with RPMI-8226 leukemia was determined as 26.2 µM; in the experiment on MOLT-4 leukemia it was 13 µM; in the experiment on OVCAR-3 ovarian, 9.64 µM; in the experiment with SF-539 CNS it was 9.5 µM; in the experiment with SNB-19 CNS, 62.2 µM.

As to `NC(CCP(=O)(O)O)C(=O)O` (centres undefined), the TGI in the experiment on MALME-3M melanoma, in the experiment with SF-268 CNS, in the experiment with SN12C renal, with NCI-H226 lung, with SK-MEL-5 melanoma and in the experiment with EKVX NSCLC was over 100 µM in each case. Further, the TGI with RPMI-8226 leukemia, in the experiment with MOLT-4 leukemia, with OVCAR-3 ovarian and in the experiment with SNB-19 CNS was over 100 µM throughout.

Consider `O=C1c2cccc(O)c2C(=O)c2c(O)cccc21`, for which the TGI in the experiment with SF-268 CNS, in the experiment on SN12C renal, in the experiment with NCI-H226 lung, in the experiment with EKVX NSCLC, with RPMI-8226 leukemia and with MOLT-4 leukemia was over 100 µM each time. The TGI in the experiment with OVCAR-3 ovarian, in the experiment on SF-539 CNS and in the experiment on SNB-19 CNS was over 100 µM in each case.

Turning to `CCCCSCC(NC(=O)/C=C/c1c(C)[nH]c(=O)[nH]c1=O)C(=O)OC` (centres undefined), the TGI in the experiment on MALME-3M melanoma is 65.7 µM; in the experiment on SF-268 CNS, 341 µM; with SN12C renal, 269 µM; in the experiment with NCI-H226 lung, 291 µM; with SK-MEL-5 melanoma, 176 µM; with EKVX NSCLC it was 188 µM. Further, the TGI is 267 µM with RPMI-8226 leukemia; 205 µM in the experiment with MOLT-4 leukemia; 77.2 µM with OVCAR-3 ovarian; 254 µM in the experiment on SF-539 CNS; 204 µM in the experiment with SNB-19 CNS.

Turning to `N=C(N)c1ccc(-c2ccc(-c3ccc4ccccc4c3)s2)s1`, the GI50 was 3.1 µM in the experiment on MALME-3M melanoma; 2.25 µM in the experiment on SF-268 CNS; 1.87 µM in the experiment with SN12C renal; 33.6 µM in the experiment with NCI-H226 lung; 14.7 µM in the experiment with SK-MEL-5 melanoma; 2.46 µM with EKVX NSCLC. Moreover, the GI50 in the experiment on RPMI-8226 leukemia was 2.3 µM; in the experiment with OVCAR-3 ovarian, 1.89 µM; in the experiment with SF-539 CNS it was 1.97 µM. For the same compound, the TGI in the experiment with MALME-3M melanoma turned out to be 9.36 µM; with SF-268 CNS, 5.5 µM; with SN12C renal it was 3.74 µM; with NCI-H226 lung, 79.2 µM; in the experiment on SK-MEL-5 melanoma, 28 µM; with EKVX NSCLC it was 7.44 µM. Moreover, the TGI amounted to 5.02 µM with RPMI-8226 leukemia, 3.7 µM in the experiment on OVCAR-3 ovarian and 4.57 µM in the experiment with SF-539 CNS.

In the case of `CS(=O)(=O)c1ccc2nc(-c3ccc(O)cc3)sc2c1`, the TGI in the experiment with MALME-3M melanoma turned out to be 31 µM; in the experiment on SF-268 CNS it was 32.3 µM; in the experiment on SN12C renal it was 35.5 µM; with NCI-H226 lung it was 36.6 µM; in the experiment with SK-MEL-5 melanoma it was 31.8 µM; with EKVX NSCLC it was 23.9 µM. The TGI in the experiment on RPMI-8226 leukemia was 35.7 µM; in the experiment on MOLT-4 leukemia, over 100 µM; in the experiment on OVCAR-3 ovarian, 31.8 µM; in the experiment with SF-539 CNS, 23.6 µM; in the experiment with SNB-19 CNS it was 36.2 µM.

Take `CN(C)CCOc1cc2c(c3ccccc13)-c1ccccc1C2O` (centres undefined): the TGI is 34.8 µM in the experiment with MALME-3M melanoma; 28.3 µM in the experiment with SF-268 CNS; 26.9 µM in the experiment on SN12C renal; 29.1 µM in the experiment with NCI-H226 lung; 29.1 µM with SK-MEL-5 melanoma; 28.2 µM in the experiment on EKVX NSCLC. In addition, the TGI in the experiment with RPMI-8226 leukemia was 31.2 µM; with MOLT-4 leukemia, 14.5 µM; in the experiment on OVCAR-3 ovarian, 30.1 µM; in the experiment on SF-539 CNS, 27.5 µM; with SNB-19 CNS it was 20.2 µM.

In the case of `CC1C[C@]2(C[C@@H](C)C(=O)O2)OC2CC3(C)C4CCC5C(C)(C)OC(=O)CC[C@@]56C[C@@]46CC[C@]3(C)C12` (some centres undefined), the TGI in the experiment with MALME-3M melanoma, with SF-268 CNS, with SN12C renal, in the experiment with NCI-H226 lung, in the experiment with SK-MEL-5 melanoma and with EKVX NSCLC was over 100 µM throughout. Also, the TGI in the experiment with RPMI-8226 leukemia, in the experiment with MOLT-4 leukemia, in the experiment with SF-539 CNS and in the experiment on SNB-19 CNS was over 100 µM throughout.

As to `C=CCOCCC(CC=C)C(=O)CC(=O)OC` (centres undefined), the TGI with MALME-3M melanoma, with SF-268 CNS, in the experiment on SN12C renal, in the experiment on NCI-H226 lung, with SK-MEL-5 melanoma and with EKVX NSCLC was over 100 µM each time. Moreover, the TGI with RPMI-8226 leukemia, in the experiment with MOLT-4 leukemia, in the experiment on OVCAR-3 ovarian, in the experiment on SF-539 CNS and with SNB-19 CNS was over 100 µM each time.

`NC(=O)c1ccc([N+](=O)[O-])cc1`: the TGI with MALME-3M melanoma, with SF-268 CNS, with SN12C renal, with NCI-H226 lung, in the experiment on SK-MEL-5 melanoma and in the experiment on EKVX NSCLC was over 100 µM throughout. The TGI in the experiment on RPMI-8226 leukemia, with MOLT-4 leukemia, in the experiment with OVCAR-3 ovarian, in the experiment with SF-539 CNS and in the experiment with SNB-19 CNS was over 100 µM each time.
